Calls of active or inactive are those of the source.
Assays:
[1] = target: T1, Oxysterols receptor LXR-beta (Homo sapiens, UniProt P55055); assay: LXR agonists, Gal4 luciferase reporter, dose response, counter-screen for ssDAF-12 agonist project, cell-based, luminescence, HEK293, S. stercoralis campaign (AID 720737); format: functional; details: read-out: IC50 (the source's name)
T1 sequence (P55055 whole entry): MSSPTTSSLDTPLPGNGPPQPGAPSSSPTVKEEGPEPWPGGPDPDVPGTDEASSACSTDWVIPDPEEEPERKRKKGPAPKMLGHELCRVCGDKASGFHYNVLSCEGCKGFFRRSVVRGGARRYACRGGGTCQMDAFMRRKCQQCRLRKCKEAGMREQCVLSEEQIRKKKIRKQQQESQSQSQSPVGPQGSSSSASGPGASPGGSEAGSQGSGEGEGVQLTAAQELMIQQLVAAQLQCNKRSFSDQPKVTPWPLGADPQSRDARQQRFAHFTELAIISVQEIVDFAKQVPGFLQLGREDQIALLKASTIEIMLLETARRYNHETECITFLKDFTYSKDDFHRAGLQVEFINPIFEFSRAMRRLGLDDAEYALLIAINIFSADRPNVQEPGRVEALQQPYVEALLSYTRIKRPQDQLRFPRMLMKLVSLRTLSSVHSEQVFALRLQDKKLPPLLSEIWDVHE

[2] = Luminescence-based cell-based high throughput dose response assay to identify activators of the DAF-12 from the parasite S. stercoralis (ssDAF-12).; format: functional
Protein Tat = Protein Tat (Human immunodeficiency virus type 1 group M subtype B (isolate HXB2)(HIV-1), UniProt P04608); format: functional;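 also: tat binding to TAR RNA read out by fluorescence polarization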
[3] = target: T2, Rac GTPase-activating protein 1 (Homo sapiens, UniProt Q9H0H5); assay: blockers of MgcRacGAP-driven Rac1 GTP hydrolysis – biochemical, ADP Hunter fluorescence, primary and confirmatory, confirmation (AID 624330); format: functional
T2 sequence (Q9H0H5 whole entry): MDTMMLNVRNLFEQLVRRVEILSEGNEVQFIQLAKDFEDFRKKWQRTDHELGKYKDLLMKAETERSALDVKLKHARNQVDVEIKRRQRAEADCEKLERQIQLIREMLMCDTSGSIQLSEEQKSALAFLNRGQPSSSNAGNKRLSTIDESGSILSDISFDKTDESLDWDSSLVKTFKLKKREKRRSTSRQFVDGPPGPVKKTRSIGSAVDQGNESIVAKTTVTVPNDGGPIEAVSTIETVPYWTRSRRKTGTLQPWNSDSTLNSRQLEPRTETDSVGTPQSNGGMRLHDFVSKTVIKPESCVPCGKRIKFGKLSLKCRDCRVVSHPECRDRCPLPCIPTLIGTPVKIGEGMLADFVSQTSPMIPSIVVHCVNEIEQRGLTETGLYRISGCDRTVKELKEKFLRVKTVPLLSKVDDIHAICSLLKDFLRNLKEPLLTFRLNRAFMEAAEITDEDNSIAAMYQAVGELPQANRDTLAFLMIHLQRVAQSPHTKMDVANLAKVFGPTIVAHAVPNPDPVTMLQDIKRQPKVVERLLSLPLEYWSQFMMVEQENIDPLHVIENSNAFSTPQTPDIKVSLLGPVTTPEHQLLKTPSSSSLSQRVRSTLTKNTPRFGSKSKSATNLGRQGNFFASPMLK

[4] = target: 1-phosphatidylinositol 4,5-bisphosphate phosphodiesterase beta-3 (Homo sapiens, UniProt Q01970); assay: Fluorescence-based biochemical high throughput dose response assay to identify inhibitors of phospholipase C isozymes (PLC-B3).
[5] = target: 1-phosphatidylinositol 4,5-bisphosphate phosphodiesterase gamma-1 (Homo sapiens, UniProt P19174); assay: Counterscreen for inhibitors of phospholipase C isozymes (PLC-B3): Fluorescence-based biochemical high throughput dose response assay to identify inhibitors of phospholipase C isozymes (PLC-gamma1).
[6] = target: Peroxisome proliferator-activated receptor gamma/Nuclear receptor corepressor 2 (Homo sapiens, UniProt P37231+Q9Y618); assay: Counterscreen for NR2E3 inverse agonists: TR-FRET-based biochemical high throughput dose response assay to identify inverse agonists of the interaction between peroxisome proliferator-activated receptor gamma (PPARg) and nuclear receptor co-repressor 2 (NCOR2).; format: functional
[7] = target: Photoreceptor-specific nuclear receptor (Homo sapiens, UniProt Q9Y5X4); assay: ligands suppressing NR2E3 nuclear receptor activity – biochemical, TR-FRET, dose response (AID 463256); format: functional
Genome polyprotein = Genome polyprotein (dengue virus type 2, UniProt P29990); assay: flavivirus cap methylation enzyme inhibition – biochemical, confirmation dose response, primary screen (AID 588689); format: functional
[8] = target: Bifunctional protein GlmU (Mycobacterium tuberculosis, UniProt P9WMN3); assay: Inhibitors of Mycobacterial Glucosamine-1-phosphate acetyl transferase (GlmU). Secondary screen.; set-up: species or system Mycobacterium tuberculosis H37Rv
[9] = blockade of melanocortin 4 receptor signaling – cell-based, plate reader, cherry pick, counter-screen for LGR2 antagonist project, dose response (AID 743444); format: functional;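 also: transfected HEK 293 cells stimulated with alpha-MSH peptide; potency of inhibitors of the alpha-MSH evoked signal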
[10] = reduction of Shn3 3'UTR-driven luciferase in osteoblasts – cell-based, Clone20 osteoblasts, firefly luciferase, cherry-picked, dose response (AID 624132); format: functional;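 also: firefly luciferase luminescence from reporter carrying the Shn3 3'UTR in osteoblasts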
[11] = target: COUP transcription factor 2 (Homo sapiens, UniProt P24468); assay: Luminescence-based cell-based high throughput dose response assay to identify inhibitors of COUP-TFII (NR2F2).; format: functional;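 also: HEK293 cells transiently cotransfected with COUP-TFII expression vector and reporter; luciferase reporter luminescence driven by COUP-TFII from the pX2-168 reporter plasmid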
[12] = non-specific 3'UTR reporter inhibition in Clone20-Shn3RL – cell-based, Renilla luciferase, cherry-picked, counter-screen for Shn3 inhibitor project, dose response (AID 624133); format: functional
[13] = A549 cell cytotoxicity, dose response, cytotoxicity control, plate reader, cherry-pick, antagonist series (AID 743412); format: functional, cell-based
[14] = blockers of bursicon-stimulated LGR2 cAMP reporter – cell-based, HEK293, CRE-luciferase reporter, cherry pick, set 2, dose response (AID 743343); format: functional;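 also: transfected cells were stimulated with diluted bursicon conditioned medium after compound addition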
[15] = toxicity toward HepG2 liver cells – cell-based, plate reader, cherry-pick, antagonist series, cytotoxicity control, dose response (AID 743416); format: functional
[16] = viability loss in HEK293 cells – cell-based, plate reader, cherry-picked samples, cytotoxicity control, dose response (AID 743446); format: functional
[17] = target: Heat shock protein HSP 90-alpha (Homo sapiens, UniProt P07900); assay: Luminescence-based dose response biochemical high throughput screening assay for inhibitors of the Heat Shock Protein 90 (HSP90). [Related pubchem assays: 1831 (Summary AID.), 1846 (Confirmation screen.), 1789 (Primary screen.)]
Trypsin = Trypsin (Sus scrofa, UniProt P00761); assay: trypsin protease activity blockade – biochemical, quenched peptide fluorescence, cherry-pick, selectivity assay for Rce1 protease inhibitor project, dose response (AID 488789)
[18] = HIV-1 Vif–A3G interaction blockers – biochemical, TR-FRET, GST-Vif 1-94, biotin-A3G peptide, dose response retest, primary screen (AID 1117319); format: functional;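 also: TR-FRET signal of purified GST-Vif binding a biotinylated A3G peptide; inhibitors lower the FRET signal by blocking Vif and A3G binding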
CAAX prenyl protease 2 = target: T3, CAAX prenyl protease 2 (Saccharomyces cerevisiae S288c, UniProt Q03530); format: biochemical
T3 sequence (Q03530 whole entry): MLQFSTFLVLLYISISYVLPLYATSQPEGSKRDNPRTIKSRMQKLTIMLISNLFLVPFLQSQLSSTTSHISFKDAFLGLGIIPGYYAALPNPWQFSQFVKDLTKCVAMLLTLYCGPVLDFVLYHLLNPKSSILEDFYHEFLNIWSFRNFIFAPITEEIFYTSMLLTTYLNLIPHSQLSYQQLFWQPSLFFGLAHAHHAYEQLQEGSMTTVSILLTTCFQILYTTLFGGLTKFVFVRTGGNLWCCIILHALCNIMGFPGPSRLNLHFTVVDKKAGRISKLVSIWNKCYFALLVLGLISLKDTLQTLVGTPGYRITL

Photoreceptor-specific nuclear receptor, sequence (Q9Y5X4 whole entry): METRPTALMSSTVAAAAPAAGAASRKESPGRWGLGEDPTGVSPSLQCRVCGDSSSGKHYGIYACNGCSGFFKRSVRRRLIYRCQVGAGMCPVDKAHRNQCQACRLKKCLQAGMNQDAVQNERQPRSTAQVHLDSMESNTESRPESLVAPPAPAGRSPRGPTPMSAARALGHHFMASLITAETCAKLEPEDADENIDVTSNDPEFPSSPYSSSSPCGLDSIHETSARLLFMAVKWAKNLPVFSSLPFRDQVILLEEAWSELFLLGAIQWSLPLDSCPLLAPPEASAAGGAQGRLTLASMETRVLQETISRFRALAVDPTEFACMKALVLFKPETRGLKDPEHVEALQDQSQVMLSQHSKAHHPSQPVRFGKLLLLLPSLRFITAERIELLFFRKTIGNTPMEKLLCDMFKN
Protein Tat, sequence (P04608 whole entry): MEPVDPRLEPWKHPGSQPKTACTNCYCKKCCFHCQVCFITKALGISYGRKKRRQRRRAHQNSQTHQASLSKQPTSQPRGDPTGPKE
Peroxisome proliferator-activated receptor gamma/Nuclear receptor corepressor 2, sequence (P37231 whole entry): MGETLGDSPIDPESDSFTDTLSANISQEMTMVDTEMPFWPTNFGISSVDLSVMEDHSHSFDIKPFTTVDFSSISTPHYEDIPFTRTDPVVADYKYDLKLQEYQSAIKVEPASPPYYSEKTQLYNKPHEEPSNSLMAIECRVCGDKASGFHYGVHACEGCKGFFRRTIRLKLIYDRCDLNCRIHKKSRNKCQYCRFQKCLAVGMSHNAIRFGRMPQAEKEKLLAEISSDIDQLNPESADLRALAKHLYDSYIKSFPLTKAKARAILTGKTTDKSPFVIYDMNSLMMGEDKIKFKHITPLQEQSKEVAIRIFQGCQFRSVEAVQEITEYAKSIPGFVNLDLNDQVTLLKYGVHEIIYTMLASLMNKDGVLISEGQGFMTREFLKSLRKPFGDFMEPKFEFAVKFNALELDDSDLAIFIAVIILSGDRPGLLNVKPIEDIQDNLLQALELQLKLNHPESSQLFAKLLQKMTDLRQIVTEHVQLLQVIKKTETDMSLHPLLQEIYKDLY
Peroxisome proliferator-activated receptor gamma/Nuclear receptor corepressor 2, sequence (Q9Y618 whole entry): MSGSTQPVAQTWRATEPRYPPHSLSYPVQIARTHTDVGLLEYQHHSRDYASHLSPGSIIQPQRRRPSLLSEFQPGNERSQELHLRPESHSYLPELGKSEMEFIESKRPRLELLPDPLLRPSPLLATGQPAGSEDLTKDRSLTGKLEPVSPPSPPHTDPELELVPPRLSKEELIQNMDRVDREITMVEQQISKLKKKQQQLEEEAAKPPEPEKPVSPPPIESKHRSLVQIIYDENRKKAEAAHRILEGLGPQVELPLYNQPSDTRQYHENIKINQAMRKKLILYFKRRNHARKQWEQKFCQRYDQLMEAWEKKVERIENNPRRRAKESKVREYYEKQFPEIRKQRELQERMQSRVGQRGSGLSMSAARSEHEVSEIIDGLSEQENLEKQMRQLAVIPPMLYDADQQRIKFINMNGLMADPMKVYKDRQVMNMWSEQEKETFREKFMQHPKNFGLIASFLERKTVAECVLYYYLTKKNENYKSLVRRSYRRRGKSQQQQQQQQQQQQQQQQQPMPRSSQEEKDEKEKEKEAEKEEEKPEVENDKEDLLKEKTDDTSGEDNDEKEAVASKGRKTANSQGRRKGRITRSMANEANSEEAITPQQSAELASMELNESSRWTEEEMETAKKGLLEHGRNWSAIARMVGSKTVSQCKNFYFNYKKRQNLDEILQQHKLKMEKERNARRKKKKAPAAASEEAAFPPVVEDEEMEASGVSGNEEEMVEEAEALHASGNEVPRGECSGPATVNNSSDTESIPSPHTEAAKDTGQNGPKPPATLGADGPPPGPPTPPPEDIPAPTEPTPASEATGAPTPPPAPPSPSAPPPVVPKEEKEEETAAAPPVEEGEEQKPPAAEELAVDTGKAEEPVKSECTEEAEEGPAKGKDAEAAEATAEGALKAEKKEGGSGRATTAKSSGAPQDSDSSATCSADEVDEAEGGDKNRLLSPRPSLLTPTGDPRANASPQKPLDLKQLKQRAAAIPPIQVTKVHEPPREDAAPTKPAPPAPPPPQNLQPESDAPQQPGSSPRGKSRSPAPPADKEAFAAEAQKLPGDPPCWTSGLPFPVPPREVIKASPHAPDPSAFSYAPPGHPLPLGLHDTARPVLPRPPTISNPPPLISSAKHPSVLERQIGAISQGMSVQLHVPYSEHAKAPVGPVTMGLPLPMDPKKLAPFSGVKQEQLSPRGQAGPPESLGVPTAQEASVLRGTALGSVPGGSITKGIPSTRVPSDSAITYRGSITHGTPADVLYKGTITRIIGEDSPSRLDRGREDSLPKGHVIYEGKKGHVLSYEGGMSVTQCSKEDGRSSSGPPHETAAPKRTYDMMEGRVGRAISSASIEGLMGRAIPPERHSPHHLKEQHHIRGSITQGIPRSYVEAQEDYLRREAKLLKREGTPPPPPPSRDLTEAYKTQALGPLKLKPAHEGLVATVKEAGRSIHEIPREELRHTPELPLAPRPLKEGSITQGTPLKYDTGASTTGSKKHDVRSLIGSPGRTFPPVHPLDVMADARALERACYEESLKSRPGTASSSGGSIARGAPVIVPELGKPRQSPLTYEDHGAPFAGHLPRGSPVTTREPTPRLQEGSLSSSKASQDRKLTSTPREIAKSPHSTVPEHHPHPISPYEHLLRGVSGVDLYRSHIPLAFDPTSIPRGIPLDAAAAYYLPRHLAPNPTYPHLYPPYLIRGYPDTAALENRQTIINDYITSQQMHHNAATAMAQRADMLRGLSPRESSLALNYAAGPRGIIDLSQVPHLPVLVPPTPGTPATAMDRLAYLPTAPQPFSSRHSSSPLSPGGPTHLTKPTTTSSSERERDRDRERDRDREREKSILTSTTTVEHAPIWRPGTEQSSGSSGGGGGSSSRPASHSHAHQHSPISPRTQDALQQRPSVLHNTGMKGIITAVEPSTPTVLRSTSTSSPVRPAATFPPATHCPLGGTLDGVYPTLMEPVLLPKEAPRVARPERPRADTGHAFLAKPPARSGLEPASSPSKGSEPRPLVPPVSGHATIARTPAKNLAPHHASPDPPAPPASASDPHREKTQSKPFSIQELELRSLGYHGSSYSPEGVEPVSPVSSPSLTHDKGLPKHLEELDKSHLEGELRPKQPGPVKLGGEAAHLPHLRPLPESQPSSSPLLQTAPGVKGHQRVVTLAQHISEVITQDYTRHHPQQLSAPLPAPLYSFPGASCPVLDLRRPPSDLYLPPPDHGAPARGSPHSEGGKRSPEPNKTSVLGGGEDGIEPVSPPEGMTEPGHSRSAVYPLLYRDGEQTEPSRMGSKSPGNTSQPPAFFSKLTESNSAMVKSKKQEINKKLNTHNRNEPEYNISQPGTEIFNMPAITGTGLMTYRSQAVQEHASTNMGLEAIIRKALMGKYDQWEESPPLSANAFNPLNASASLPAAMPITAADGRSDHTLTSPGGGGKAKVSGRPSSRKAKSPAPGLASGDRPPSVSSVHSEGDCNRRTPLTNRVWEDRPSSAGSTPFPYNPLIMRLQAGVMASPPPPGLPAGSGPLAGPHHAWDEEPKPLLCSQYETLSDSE
Genome polyprotein, sequence (P29990 2492-3391 limits assumed): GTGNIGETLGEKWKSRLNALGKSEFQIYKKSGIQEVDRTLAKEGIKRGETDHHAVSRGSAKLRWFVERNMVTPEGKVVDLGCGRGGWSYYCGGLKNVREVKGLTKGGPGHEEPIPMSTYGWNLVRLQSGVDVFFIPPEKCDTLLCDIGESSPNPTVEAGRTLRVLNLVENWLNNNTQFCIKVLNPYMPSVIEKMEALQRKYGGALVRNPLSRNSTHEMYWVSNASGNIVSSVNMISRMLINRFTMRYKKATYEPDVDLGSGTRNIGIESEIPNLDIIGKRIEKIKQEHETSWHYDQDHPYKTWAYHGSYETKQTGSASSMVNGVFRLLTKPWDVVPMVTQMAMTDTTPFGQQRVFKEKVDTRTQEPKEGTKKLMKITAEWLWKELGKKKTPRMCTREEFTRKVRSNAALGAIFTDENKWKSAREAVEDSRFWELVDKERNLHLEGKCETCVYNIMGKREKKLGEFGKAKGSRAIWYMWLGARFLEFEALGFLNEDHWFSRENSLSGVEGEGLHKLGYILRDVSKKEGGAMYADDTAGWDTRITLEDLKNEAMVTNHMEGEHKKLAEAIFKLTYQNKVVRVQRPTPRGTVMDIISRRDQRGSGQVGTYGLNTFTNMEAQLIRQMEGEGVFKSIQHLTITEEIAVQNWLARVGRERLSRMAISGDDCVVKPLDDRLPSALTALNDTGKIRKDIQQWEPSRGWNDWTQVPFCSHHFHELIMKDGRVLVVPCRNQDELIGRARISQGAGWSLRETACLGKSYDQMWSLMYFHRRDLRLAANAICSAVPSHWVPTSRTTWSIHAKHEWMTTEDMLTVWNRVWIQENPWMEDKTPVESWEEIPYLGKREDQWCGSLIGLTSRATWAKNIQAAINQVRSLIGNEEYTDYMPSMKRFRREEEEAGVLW
COUP transcription factor 2, sequence (P24468 whole entry): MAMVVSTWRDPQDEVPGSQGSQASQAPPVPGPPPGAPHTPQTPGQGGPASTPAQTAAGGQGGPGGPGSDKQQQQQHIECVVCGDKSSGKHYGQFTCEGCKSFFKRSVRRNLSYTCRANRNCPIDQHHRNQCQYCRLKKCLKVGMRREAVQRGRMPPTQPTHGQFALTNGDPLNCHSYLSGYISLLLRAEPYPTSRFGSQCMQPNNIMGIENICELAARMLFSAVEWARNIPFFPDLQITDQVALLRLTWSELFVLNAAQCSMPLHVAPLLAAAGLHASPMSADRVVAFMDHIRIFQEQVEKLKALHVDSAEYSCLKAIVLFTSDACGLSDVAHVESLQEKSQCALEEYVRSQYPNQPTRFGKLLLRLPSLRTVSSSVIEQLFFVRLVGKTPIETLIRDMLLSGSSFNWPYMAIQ
Trypsin, sequence (P00761 whole entry): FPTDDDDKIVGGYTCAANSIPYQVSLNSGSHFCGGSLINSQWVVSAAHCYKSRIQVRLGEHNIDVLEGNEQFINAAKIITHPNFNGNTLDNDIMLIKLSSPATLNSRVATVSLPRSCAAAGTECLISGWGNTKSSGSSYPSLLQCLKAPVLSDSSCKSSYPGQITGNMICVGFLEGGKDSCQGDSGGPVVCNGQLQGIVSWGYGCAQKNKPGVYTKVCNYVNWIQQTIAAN

COc1ccc(C(=O)Nc2ccc3ccccc3c2)c(OC)c1
EC50 [1]: > 67.5 µM (inactive) | IC50 [2]: > 67.5 µM (inactive)

COc1ccc(N2C(=O)CC(Nc3ccc(N4CCOCC4)cc3)C2=O)c(OC)c1 (stereo unspecified)
IC50 (Protein Tat): 12.4 µM (inconclusive) | IC50 [3]: 174 µM (active)

COC(=O)C1CCCN1C(=O)COc1ccc(Br)cc1Cl (stereo unspecified)
IC50 [4]: > 122 µM (inactive) | IC50 [5]: > 122 µM (inactive)

Cc1ccc2c(Cl)c(C(=O)Nc3cc(C)on3)sc2c1
IC50 [6]: 14.1 µM (not active) | IC50 [7]: 12.7 µM (not active)

O=C(Nc1cccc(-c2nc3cccnc3s2)c1)c1ccc(Cl)nc1
IC50 [6]: 1.8 µM (active) | IC50 [7]: 3.37 µM (active)

O=C(O)c1[nH]c2ccccc2c1C(c1cc(Br)ccc1O)c1c(C(=O)O)[nH]c2ccccc12
IC50 (Genome polyprotein): 16 µM (active) | AC50 (cells): 9.21 µM (active)

O=C(O)CSCC(=O)Nc1ccc(-c2nc3ccccc3s2)cc1
IC50 [8]: 86.8 µM (active)

CC[C@H]1CN2CCc3cc(OC)c(OC)cc3C2C[C@@H]1C[C@H]1NCCc2cc(OC)c(OC)cc21 (stereo partly specified)
AC50 [9]: 0.25 µM (active) | AC50 [10]: < 0.26 µM (active) | IC50 [11]: 0.209 µM (active) | AC50 [12]: < 0.26 µM (active) | AC50 [13]: 0.0576 µM (active) | AC50 [14]: 0.257 µM (active) | AC50 [15]: 0.0959 µM (active) | AC50 [16]: 0.0731 µM (active)

C=CCOC(=O)c1sc(NC(=O)c2ccc(OC)cc2)nc1C
IC50 [17]: 3.58 µM (active)

O=C(O)c1cc(-c2ccc(N3CCOCC3)cc2)nn1-c1ccc(F)cc1F
IC50 (Protein Tat): > 100 µM (active) | AC50 (Trypsin): 6.65 µM (active) | IC50 [18]: > 100 µM (active) | AC50 (CAAX prenyl protease 2): 13.5 µM (active)
